For the assay, the target named is recombinant PIM-1 (Homo sapiens, UniProt P11309). Description: PIM-1 kinase assay (radiometric, 15 uM ATP, DMSO 4%). The class given is biochemical. The settings on record: Table 1; for inhibition at 2 µM: % inhibition at the high dose (2 micromolar) in a single screening assay, 15 μM ATP; for IC50: given for compounds with IC50 at or below 2 micromolar, 15 uM ATP, read-out: PIM-1 IC50. On the procedure: The following procedure was used to assay the PIM-1 kinase activity of compounds of the invention. Other methods for assaying PIM-1 and other PIM kinases, as well as methods to assay for activity against the various kinases in FIG. 1, are known in the art.
Sequence of recombinant PIM-1 (P11309 whole entry): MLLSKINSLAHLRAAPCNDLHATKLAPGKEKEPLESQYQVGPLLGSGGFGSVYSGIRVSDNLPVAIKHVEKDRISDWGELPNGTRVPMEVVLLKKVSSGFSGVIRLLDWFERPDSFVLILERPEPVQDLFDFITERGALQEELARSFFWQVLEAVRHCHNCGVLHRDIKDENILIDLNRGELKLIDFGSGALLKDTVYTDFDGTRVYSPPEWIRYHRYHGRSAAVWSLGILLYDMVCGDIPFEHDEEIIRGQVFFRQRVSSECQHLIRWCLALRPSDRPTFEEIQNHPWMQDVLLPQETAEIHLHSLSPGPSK
(specific activity approx. 500 cpm/pmol), DMSO 4% and test inhibitor compound at the required concentration. The reaction was initiated by the addition of the Magnesium ATP mixture. After 40 min incubation at 23° C., the reactions were quenched by the addition of 100 ul 0.75% Phosphoric acid, and the labeled peptide collected by filtration through a phosphocellulose filter plate. The plate was washed 4 times with 0.075% phosphoric acid (100 ul per well) and then, after the addition of scintillation fluid (20 ul per well), the counts were measured by a scintillation counter.

In the case of `Cn1cncc1CNC(=O)c1ccccc1-c1ccc(/C=C2/C(=O)Nc3ccc(F)cc32)o1` [Compound 65], the inhibition at 2 µM is -2.39%. On the same count and under the same terms, with `CN1CCCCC1CNC(=O)c1ccccc1-c1ccc(/C=C2/C(=O)Nc3ccc(F)cc32)o1` (stereo not drawn) [Compound 66] the figure was 4.53%; with `CN(C)C1CCN(C(=O)c2ccccc2-c2ccc(/C=C3/C(=O)Nc4ccc(F)cc43)o2)CC1` [Compound 67], 8.84%. For the compound `CCN(CC)CCNC(=O)c1ccccc1-c1ccc(/C=C2/C(=O)Nc3ccc(F)cc32)o1` [Compound 68], the inhibition at 2 µM turned out to be 11.2%. Still for that read-out and setting: as for `CN1CCCC(NC(=O)c2cc(-c3ccc(/C=C4/C(=O)Nc5ccc(F)cc54)o3)ccc2Cl)C1` (stereo not drawn) [Compound 70], the figure is 27.6%. On the same count and under the same terms, as for `CCN1CCCC1CNC(=O)c1cc(-c2ccc(/C=C3/C(=O)Nc4ccc(F)cc43)o2)ccc1Cl` (stereo not drawn) [Compound 71], the figure is 5.32%; as for `CN1CCC(N(C)C(=O)c2cc(-c3ccc(/C=C4/C(=O)Nc5ccc(F)cc54)o3)ccc2Cl)C1` (stereo not drawn) [Compound 72], 37.1%; as for `O=C1Nc2ccc(F)cc2/C1=C\c1ccc(-c2ccc(Cl)c(C(=O)NCCN3CCCC3)c2)o1` [Compound 73], 20.9%. With `CCN(CC)CCNC(=O)c1cc(-c2ccc(/C=C3/C(=O)Nc4ccc(F)cc43)o2)ccc1Cl` [Compound 74], the inhibition at 2 µM worked out at 15.6%. Still for that read-out and setting: with `CN(C)C1CCN(C(=O)c2cc(-c3ccc(/C=C4/C(=O)Nc5ccc(F)cc54)o3)ccc2Cl)CC1` [Compound 75] the figure was 27.8%.

As to `CN1CCCCC1CNC(=O)c1cc(-c2ccc(/C=C3/C(=O)Nc4ccc(F)cc43)o2)ccc1Cl` (stereo not drawn) [Compound 76], the inhibition at 2 µM came to 15.7%.

Regarding `O=C1Nc2ccc(F)cc2/C1=C\c1ccc(-c2ccc(Cl)c(C(=O)N3CCCCC3)c2)o1` [Compound 77], the inhibition at 2 µM is -17%. With `O=C1Nc2ccccc2/C1=C\c1ccc(-c2cc(C(=O)NCCN3CCCC3)ccc2F)o1` [Compound 78], the inhibition at 2 µM was 88.3% and the half-maximal inhibitory concentration (IC50) is below 1000 nM.

For the compound `O=C1Nc2ccccc2/C1=C\c1ccc(-c2cc(F)cc(C(=O)NCCN3CCCC3)c2)o1` [Compound 79], the inhibition at 2 µM came to 43.3% and the IC50 is below 2000 nM. The like results for `CCN(CC)CCNC(=O)c1ccc(-c2ccc(/C=C3/C(=O)Nc4ccc(F)cc43)o2)cc1` [Compound 80] were, in that order, 94.2% and below 1000 nM. On the same counts, the results for `O=C1Nc2ccc(F)cc2/C1=C\c1ccc(-c2ccc(C(=O)NCCN3CCCC3)cc2)o1` [Compound 81] are 94.8% and below 1000 nM. With `Cc1cnc(CNC(=O)c2ccc(-c3ccc(/C=C4/C(=O)Nc5ccc(F)cc54)o3)cc2)cn1` [Compound 82], the inhibition at 2 µM turned out to be 26.6%. `CN1CCC(N(C)C(=O)c2ccc(-c3ccc(/C=C4/C(=O)Nc5ccc(F)cc54)o3)cc2)C1` (stereo not drawn) [Compound 83]: the inhibition at 2 µM was found to be 54.8% and the 50% inhibitory concentration (IC50) is below 1000 nM. Consider `CCN1CCCC1CNC(=O)c1ccc(-c2ccc(/C=C3/C(=O)Nc4ccc(F)cc43)o2)cc1` (stereo not drawn) [Compound 84], for which the inhibition at 2 µM turned out to be 91.3% and the IC50 was below 1000 nM. On the same counts, the results for `CN1CCCC(NC(=O)c2ccc(-c3ccc(/C=C4/C(=O)Nc5ccc(F)cc54)o3)cc2)C1` (stereo not drawn) [Compound 85] are 84.5% and below 2000 nM.

`CN1CCCCC1CNC(=O)c1ccc(-c2ccc(/C=C3/C(=O)Nc4ccc(F)cc43)o2)cc1` (stereo not drawn) [Compound 86]: the inhibition at 2 µM is 90.6% and the half-inhibitory concentration (IC50) is below 1000 nM. The like results for `CN(C)C1CCN(C(=O)c2ccc(-c3ccc(/C=C4/C(=O)Nc5ccc(F)cc54)o3)cc2)CC1` [Compound 87] were, in that order, 51.9% and below 2000 nM.

As to `O=C1Nc2ccc(F)cc2/C1=C\c1cc(-c2cccc(C(=O)NCCN3CCCC3)c2)co1` [Compound 88], the inhibition at 2 µM turned out to be 9%. Still for that read-out and setting: with `CN1CCCC(NC(=O)c2cccc(-c3coc(/C=C4/C(=O)Nc5ccc(F)cc54)c3)c2)C1` (stereo not drawn) [Compound 89] the figure was 6.1%; with `CCN1CCCC1CNC(=O)c1cccc(-c2coc(/C=C3/C(=O)Nc4ccc(F)cc43)c2)c1` (stereo not drawn) [Compound 90], 17.1%; with `CN1CCC(N(C)C(=O)c2cccc(-c3coc(/C=C4/C(=O)Nc5ccc(F)cc54)c3)c2)C1` (stereo not drawn) [Compound 91], 2.87%. The same measure, in the same setting: as for `Cn1cncc1CNC(=O)c1cccc(-c2coc(/C=C3/C(=O)Nc4ccc(F)cc43)c2)c1` [Compound 92], the figure is 12.7%. Turning to `CN1CCCCC1CNC(=O)c1cccc(-c2coc(/C=C3/C(=O)Nc4ccc(F)cc43)c2)c1` (stereo not drawn) [Compound 93], the inhibition at 2 µM came out at 9.42%.

With `CCN(CC)CCNC(=O)c1cccc(-c2coc(/C=C3/C(=O)Nc4ccc(F)cc43)c2)c1` [Compound 94], the inhibition at 2 µM worked out at 11.5%. With `O=C1Nc2ccc(F)cc2/C1=C\c1cc(-c2cccc(C(=O)NCc3ccncc3)c2)co1` [Compound 95], the inhibition at 2 µM is -19.1%. Still for that read-out and setting: as for `CN(C)C1CCN(C(=O)c2cccc(-c3coc(/C=C4/C(=O)Nc5ccc(F)cc54)c3)c2)CC1` [Compound 96], the figure is 10.8%. For the compound `CCN(CC)CCNC(=O)c1ccc(Cl)c(-c2ccc(/C=C3/C(=O)Nc4ccc(F)cc43)o2)c1` [Compound 97], the half-inhibitory concentration (IC50) was below 1000 nM. The same measure, in the same setting: with `CN1CCC(N(C)C(=O)c2ccc(Cl)c(-c3ccc(/C=C4/C(=O)Nc5ccc(F)cc54)o3)c2)C1` (stereo not drawn) [Compound 99] the figure was below 1000 nM; with `CCN1CCCC1CNC(=O)c1ccc(Cl)c(-c2ccc(/C=C3/C(=O)Nc4ccc(F)cc43)o2)c1` (stereo not drawn) [Compound 100], below 1000 nM; with `CN1CCCC(NC(=O)c2ccc(Cl)c(-c3ccc(/C=C4/C(=O)Nc5ccc(F)cc54)o3)c2)C1` (stereo not drawn) [Compound 101], below 2000 nM. The same measure, in the same setting: with `CN1CCCCC1CNC(=O)c1ccc(Cl)c(-c2ccc(/C=C3/C(=O)Nc4ccc(F)cc43)o2)c1` (stereo not drawn) [Compound 102] the figure was below 2000 nM; with `CN(C)C1CCN(C(=O)c2ccc(Cl)c(-c3ccc(/C=C4/C(=O)Nc5ccc(F)cc54)o3)c2)CC1` [Compound 103], below 2000 nM. As for `O=C1Nc2c(F)cccc2/C1=C\c1ccc(-c2ccc(Cl)c(C(=O)NCCN3CCCC3)c2)o1` [Compound 104], the inhibition at 2 µM was -5.3%. Still for that read-out and setting: with `O=C1Nc2c(Cl)cccc2/C1=C\c1ccc(-c2ccc(Cl)c(C(=O)NCCN3CCCC3)c2)o1` [Compound 105] the figure was -16.7%; with `O=C1Nc2ccc(Cl)cc2/C1=C\c1ccc(-c2ccc(Cl)c(C(=O)NCCN3CCCC3)c2)o1` [Compound 106], 22.2%.

Regarding `Cc1cnc(CNC(=O)c2cccc(-c3ccc(/C=C4/C(=O)Nc5ccc(Cl)cc54)o3)c2)cn1` [Compound 107], the inhibition at 2 µM is 21%. In the case of `O=C1Nc2ccc(Cl)cc2/C1=C\c1ccc(-c2cccc(C(=O)NCc3ccncc3)c2)o1` [Compound 108], the concentration for half-maximal inhibition (IC50) was below 1000 nM. The same measure, in the same setting: as for `CN1CCC(N(C)C(=O)c2cccc(-c3ccc(/C=C4/C(=O)Nc5ccc(Cl)cc54)o3)c2)C1` (stereo not drawn) [Compound 109], the figure is below 2000 nM; as for `Cn1cncc1CNC(=O)c1cccc(-c2ccc(/C=C3/C(=O)Nc4ccc(Cl)cc43)o2)c1` [Compound 110], below 1000 nM.

For the compound `CN1CCCC(NC(=O)c2cccc(-c3ccc(/C=C4/C(=O)Nc5ccc(Cl)cc54)o3)c2)C1` (stereo not drawn) [Compound 111], the inhibition at 2 µM is 42.6%.

`CCN1CCCC1CNC(=O)c1cccc(-c2ccc(/C=C3/C(=O)Nc4ccc(Cl)cc43)o2)c1` (stereo not drawn) [Compound 112]: the half-inhibitory concentration (IC50) was below 1000 nM. Regarding `CN(C)C1CCN(C(=O)c2cccc(-c3ccc(/C=C4/C(=O)Nc5ccc(Cl)cc54)o3)c2)CC1` [Compound 113], the inhibition at 2 µM was 38.1%. Same read-out and setting: as for `CN1CCN(C(=O)c2cccc(-c3ccc(/C=C4/C(=O)Nc5ccc(Cl)cc54)o3)c2)CC1` [Compound 114], the figure is 23%.

Turning to `O=C1Nc2ccc(Cl)cc2/C1=C\c1ccc(-c2cccc(C(=O)NCc3cccnc3)c2)o1` [Compound 116], the IC50 was below 1000 nM. Consider `O=C1Nc2ccc(Cl)cc2/C1=C\c1ccc(-c2cccc(C(=O)NCc3ccccn3)c2)o1` [Compound 117], for which the inhibition at 2 µM was 19.2%. As to `CN(C)CCNC(=O)c1cccc(-c2ccc(/C=C3/C(=O)Nc4ccc(Cl)cc43)o2)c1` [Compound 118], the 50% inhibitory concentration (IC50) was below 1000 nM. As for `Cn1ccnc1CNC(=O)c1cccc(-c2ccc(/C=C3/C(=O)Nc4ccc(Cl)cc43)o2)c1` [Compound 119], the inhibition at 2 µM is 37%. As for `CCN(CC)CCNC(=O)c1cccc(-c2ccc(/C=C3/C(=O)Nc4ccc(Cl)cc43)o2)c1` [Compound 120], the IC50 is below 2000 nM. As to `CC1CCN(CCCNC(=O)c2cccc(-c3ccc(/C=C4/C(=O)Nc5ccc(Cl)cc54)o3)c2)CC1` [Compound 121], the inhibition at 2 µM came to 25.2%. `CC1CCCN(CCCNC(=O)c2cccc(-c3ccc(/C=C4/C(=O)Nc5ccc(Cl)cc54)o3)c2)C1` (stereo not drawn) [Compound 122]: the inhibition at 2 µM was 39.3%.

Turning to `O=C1Nc2ccc(Cl)cc2/C1=C\c1ccc(-c2cccc(C(=O)NCCCn3ccnc3)c2)o1` [Compound 123], the 50% inhibitory concentration (IC50) is below 1000 nM.

As for `O=C1Nc2ccc(Cl)cc2/C1=C\c1ccc(-c2cccc(C(=O)NCCCN3CCOCC3)c2)o1` [Compound 124], the IC50 is below 1000 nM. In the case of `CN(C)CCCOc1ccc(-c2ccc(/C=C3/C(=O)Nc4ccccc43)o2)cn1` [Compound 125], the inhibition at 2 µM came to 41.5%. Same read-out and setting: with `CN1CCN(c2ccc(-c3ccc(/C=C4/C(=O)Nc5ccccc54)o3)cn2)CC1` [Compound 126] the figure was 19.5%. For the compound `O=C1Nc2ccccc2/C1=C\c1ccc(-c2ccc(C(=O)O)nc2)o1` [Compound 127], the half-inhibitory concentration (IC50) is below 1000 nM.

Usually inhibition stands for the drop in the measured response relative to a control, in per cent. The IC50 is the concentration at which inhibition is half-maximal.

(Values after patent publication US20120190669A1, “OXINDOLE COMPOUNDS” (CYLENE PHARMACEUTICALS, INC., priority 2008, published 2012).)
